Literature values, collected in paper PMC10033663, “Acute pharmacological profile of 2C-B-Fly-NBOMe in male Wistar rats—pharmacokinetics, effects on behaviour and thermoregulation” (Frontiers in Pharmacology, 2023).
Like-named read-outs stand apart in the source and are kept apart here.

Legend:
[1] = set-up: method as in ref Adams and Geyer, 1982; Páleníček et al., 2013; Páleníček et al., 2008; details: ref Adams and Geyer, 1982, Páleníček et al., 2013, 2008; cited from earlier work
[2] = rat blood serum; 1 mg/kg, peroral administration; ref Baralla et al. (2019); cited from earlier work
mice = test system: mice; set-up: method as in Halberstadt, 2017; details: ref Halberstadt, 2017, cited from earlier work; for locomotion: mice
[3] = set-up: method as in Gatch et al., 2017; Wojtas et al., 2021; details: administered i. p.; ref Gatch et al., 2017; Wojtas et al., 2021; cited from earlier work
rats [4] = test system: rats; set-up: method as in Miliano et al. (2019); details: ref Miliano et al. (2019), cited from earlier work
rats [5] = details: 0.5 mg/kg i. p.; female and male rats; ref Miliano et al. (2019); cited from earlier work
[6] = set-up: method as in ref Šíchová et al., 2022; details: 5 mg/kg, ref Šíchová et al., 2022, cited from earlier work
[7] = set-up: method as in ref Šíchová et al., 2022; details: compared with 2C-B-Fly-NBOMe; ref Šíchová et al., 2022; cited from earlier work
[8] = set-up: method as in ref Šíchová et al., 2022; details: ref Šíchová et al., 2022; cited from earlier work
[9] = set-up: method as in ref Šíchová et al., 2022; details: 5 mg/kg; individually-housed animals; ref Šíchová et al., 2022; cited from earlier work
rats [10] = test system: rats; set-up: method as in Halberstadt and Geyer, 2017; details: ref Halberstadt and Geyer, 2017; cited from earlier work
rats [11] = test system: rats; set-up: method as in Nakamura et al., 2018; details: 0.25 intraperitoneally (i. p.), ambient temperature 29°C, ref Nakamura et al., 2018; cited from earlier work
[12] = 50 mg/kg s. c., ref Rohanová et al., 2008, cited from earlier work

COc1cc(CCN)cc(OC)c1OC [mescaline]
biphasic effect (low and high doses, temporal onsets) [1]: biphasic effect

CC(N)Cc1c2c(cc3c1OCC3)OCC2 (stereo not drawn) [FLY, 1-(2,3,6,7-tetra-hydrofuro [2,3-f][1]benzofuran-4-yl)propan-2-amine]
time of peak concentration [2]: 30 min

COc1cc(CCNCc2ccccc2OC)c(OC)cc1I [25I-NBOMe, 2-(4-iodo-2,5-dimethoxyphenyl)-N-[(2-methoxyphenyl)methyl]ethanamine]
locomotion (mice; 0.1 mg/kg s. c., 60 min temporal onset): significant hyperlocomotion
locomotion (mice; 3 mg/kg s. c.): hypolocomotion
biphasic effect on locomotion by route (mice; s. c. versus i. p.): induced a biphasic effect after s. c. application, but interestingly not after i. p. injection
locomotor activity [3]: dose-dependent decrease in locomotor activity
ASR (rats [4]; highest dose (1 mg/kg i. p.)): significant decrease of ASR
PPI (rats [4]): dose-dependent inhibition of PPI
body temperature (rats [5]): induced hyperthermia within 35–65 min in female rats, but not in males

CCN(CC)C(=O)[C@@H]1C=C2c3cccc4[nH]cc(c34)C[C@H]2N(C)C1 [LSD, lysergic acid diethylamide]
biphasic effect (low and high doses, temporal onsets) [1]: biphasic effect

NCCc1c2c(cc3c1OCC3)OCC2 [2C-FLY, 2-(2,3,6,7-tetrahydrofuro [2,3-f][1]benzofuran-4-yl)ethanamine]
time of peak concentration [2]: 60 min

COc1cc(CCNCc2ccccc2OC)c(OC)cc1Cl [25C-NBOMe]
locomotor activity [3]: dose-dependent decrease in locomotor activity

COc1cc(CCNCc2ccccc2OC)c(OC)cc1C#N [25CN-NBOMe]
half-life ([6]; blood serum): 1.88 h
half-life ([6]; brain tissue): 2.28 h
locomotion [7]: similar, yet less pronounced decrease in locomotion
PPI [8]: affected PPI only in the highest dose of 5 mg/kg in the 15 min onset
body temperature [9]: significant hypothermic effect

COc1cc(CCNCc2ccccc2O)c(OC)cc1C#N [25CN-NBOH]
PPI (rats [10]): tendencies to disrupt PPI

COc1cc(CCNCc2ccccc2OC)c(OC)cc1Br [25B-NBOMe]
locomotor activity [3]: dose-dependent decrease in locomotor activity
body temperature (rats [11]): hyperthermia, but only in higher ambient temperature

COc1cc(CCN)c(OC)cc1Br [2C-B, 4-Bromo-2,5-dimethoxyphenethylamine]
biphasic effect (low and high doses, temporal onsets) [1]: biphasic effect
time for which presence was detectable ([12]; all collected tissues): up to 5 h
time of peak concentration ([12]; blood serum): ≤ 30 min
time of peak concentration ([12]; brain, liver, and lung tissue): ≤ 60 min
